Patent US20050080120A1, “4-[3,5-bis-(2-hydroxy-phenyl)-[1,2,4]triazol-1-yl]-benzoic acid derivatives for treating an excess of metal in the body” (priority 2001, published 2005)

melting point: 223 to 226 °C
SMILES: O=C(O)c1ccc(-n2nc(-c3cccc(O)c3O)nc2-c2ccccc2O)cc1 [Example 1, 4-[3-(2,3-Dihydroxy-phenyl)-5-(2-hydroxy-phenyl)-[1,2,4]triazol-1-yl]benzoic Acid]
